Reference: ChEMBL document CHEMBL1146722, “Synthesis and antibacterial activity of 6-O-arylpropargyl-9-oxime-11,12-carbamate ketolides” (2004)
≈ marks a conversion by molar mass, not a printed value.

Columns and labels:
Type in all cases: functional
Streptococcus pyogenes [1] = test: In vitro antibacterial activity against Streptococcus pyogenes PIU 2548
Streptococcus pneumoniae [2] = test: In vitro antibacterial activity against Streptococcus pneumoniae 5979
Streptococcus pneumoniae [3] = test: In vitro antibacterial activity against Streptococcus pneumoniae 5649
Staphylococcus aureus [4] = test: In vitro antibacterial activity against Staphylococcus aureus 1775 strain
Streptococcus pyogenes [5] = test: In vitro antibacterial activity against Streptococcus pyogenes 930
Streptococcus pneumoniae [6] = test: In vitro antibacterial activity against Streptococcus pneumoniae ATCC 6303
Staphylococcus aureus [7] = test: In vitro antibacterial activity against Staphylococcus aureus A5177 strain
Staphylococcus aureus [8] = test: In vitro antibacterial activity against Staphylococcus aureus NCTC 10649M strain
Haemophilus influenzae = test: In vitro antibacterial activity against Haemophilus influenzae GYR1435
Streptococcus pyogenes [9] = test: In vitro antibacterial activity against Streptococcus pyogenes EES61

## CC[C@H]1OC(=O)[C@H](C)C(=O)[C@H](C)[C@@H](OC2O[C@H](C)C[C@H](N(C)C)[C@H]2O)[C@@](C)(OCC#Cc2ccc3nccnc3c2)C[C@@H](C)/C(=N\OC)[C@H](C)[C@H]2NC(=O)O[C@@]21C (stereo not given in full)
Streptococcus pyogenes [1]
  MIC: 0.5 µg/mL (≈ 0.63 µM)
Streptococcus pneumoniae [2]
  MIC: 0.25 µg/mL (≈ 0.315 µM)
Streptococcus pneumoniae [3]
  MIC: 0.125 µg/mL (≈ 0.157 µM)
Staphylococcus aureus [4]
  MIC: > 128 µg/mL
Streptococcus pyogenes [5]
  MIC: 8 µg/mL (≈ 10.1 µM)
Streptococcus pneumoniae [6]
  MIC: 0.008 µg/mL (≈ 0.0101 µM)
Staphylococcus aureus [7]
  MIC: 0.008 µg/mL (≈ 0.0101 µM)
Staphylococcus aureus [8]
  MIC: 0.25 µg/mL (≈ 0.315 µM)
Haemophilus influenzae
  MIC: 8 µg/mL (≈ 10.1 µM)
Streptococcus pyogenes [9]
  MIC: 0.008 µg/mL (≈ 0.0101 µM)

## CC[C@H]1OC(=O)[C@H](C)C(=O)[C@H](C)[C@@H](OC2O[C@H](C)C[C@H](N(C)C)[C@H]2O)[C@@](C)(OCC#Cc2ccc(-c3nnn(C)n3)s2)C[C@@H](C)/C(=N\OC)[C@H](C)[C@H]2NC(=O)O[C@@]21C (stereo not given in full)
Streptococcus pyogenes [1]
  MIC: 0.125 µg/mL (≈ 0.151 µM)
Streptococcus pneumoniae [2]
  MIC: 0.5 µg/mL (≈ 0.602 µM)
Streptococcus pneumoniae [3]
  MIC: 0.06 µg/mL (≈ 0.0723 µM)
Staphylococcus aureus [4]
  MIC: 128 µg/mL (≈ 154 µM)
Streptococcus pyogenes [5]
  MIC: 32 µg/mL (≈ 38.6 µM)
Streptococcus pneumoniae [6]
  MIC: 0.008 µg/mL (≈ 0.00964 µM)
Staphylococcus aureus [7]
  MIC: 0.008 µg/mL (≈ 0.00964 µM)
Staphylococcus aureus [8]
  MIC: 0.25 µg/mL (≈ 0.301 µM)
Haemophilus influenzae
  MIC: 4 µg/mL (≈ 4.82 µM)
Streptococcus pyogenes [9]
  MIC: 0.008 µg/mL (≈ 0.00964 µM)

## CC[C@H]1OC(=O)[C@H](C)C(=O)[C@H](C)[C@@H](OC2O[C@H](C)C[C@H](N(C)C)[C@H]2O)[C@@](C)(OCC#Cc2cnc3ccccc3c2)C[C@@H](C)/C(=N\OC)[C@H](C)[C@H]2NC(=O)O[C@@]21C (stereo not given in full)
Streptococcus pyogenes [1]
  MIC: 0.125 µg/mL (≈ 0.158 µM)
Streptococcus pneumoniae [2]
  MIC: 0.25 µg/mL (≈ 0.315 µM)
Streptococcus pneumoniae [3]
  MIC: 0.125 µg/mL (≈ 0.158 µM)
Staphylococcus aureus [4]
  MIC: 128 µg/mL (≈ 161 µM)
Streptococcus pyogenes [5]
  MIC: 1 µg/mL (≈ 1.26 µM)
Streptococcus pneumoniae [6]
  MIC: 0.008 µg/mL (≈ 0.0101 µM)
Staphylococcus aureus [7]
  MIC: 0.25 µg/mL (≈ 0.315 µM)
Staphylococcus aureus [8]
  MIC: 1 µg/mL (≈ 1.26 µM)
Haemophilus influenzae
  MIC: 4 µg/mL (≈ 5.04 µM)
Streptococcus pyogenes [9]
  MIC: 0.008 µg/mL (≈ 0.0101 µM)

## CC[C@H]1OC(=O)[C@H](C)C(=O)[C@H](C)[C@@H](OC2O[C@H](C)C[C@H](N(C)C)[C@H]2O)[C@@](C)(OCC#Cc2ccc(-c3ccccn3)s2)C[C@@H](C)/C(=N\OC)[C@H](C)[C@H]2NC(=O)O[C@@]21C (stereo not given in full)
Streptococcus pyogenes [1]
  MIC: 0.03 µg/mL (≈ 0.0364 µM)
Streptococcus pneumoniae [2]
  MIC: 0.008 µg/mL (≈ 0.0097 µM)
Streptococcus pneumoniae [3]
  MIC: 0.008 µg/mL (≈ 0.0097 µM)
Staphylococcus aureus [4]
  MIC: 64 µg/mL (≈ 77.6 µM)
Streptococcus pyogenes [5]
  MIC: 16 µg/mL (≈ 19.4 µM)
Streptococcus pneumoniae [6]
  MIC: 0.008 µg/mL (≈ 0.0097 µM)
Staphylococcus aureus [7]
  MIC: 0.008 µg/mL (≈ 0.0097 µM)
Staphylococcus aureus [8]
  MIC: 0.25 µg/mL (≈ 0.303 µM)
Haemophilus influenzae
  MIC: 4 µg/mL (≈ 4.85 µM)
Streptococcus pyogenes [9]
  MIC: 0.008 µg/mL (≈ 0.0097 µM)

## CC[C@H]1OC(=O)[C@H](C)C(=O)[C@H](C)[C@@H](OC2O[C@H](C)C[C@H](N(C)C)[C@H]2O)[C@@](C)(OCC#Cc2cnc3cccnc3c2)C[C@@H](C)/C(=N\OC)[C@H](C)[C@H]2NC(=O)O[C@@]21C (stereo not given in full)
Streptococcus pyogenes [1]
  MIC: 0.06 µg/mL (≈ 0.0756 µM)
Streptococcus pneumoniae [2]
  MIC: 1 µg/mL (≈ 1.26 µM)
Streptococcus pneumoniae [3]
  MIC: 0.03 µg/mL (≈ 0.0378 µM)
Staphylococcus aureus [4]
  MIC: > 128 µg/mL
Streptococcus pyogenes [5]
  MIC: 0.5 µg/mL (≈ 0.63 µM)
Streptococcus pneumoniae [6]
  MIC: 0.008 µg/mL (≈ 0.0101 µM)
Staphylococcus aureus [7]
  MIC: 0.008 µg/mL (≈ 0.0101 µM)
Staphylococcus aureus [8]
  MIC: 1 µg/mL (≈ 1.26 µM)
Haemophilus influenzae
  MIC: 2 µg/mL (≈ 2.52 µM)
Streptococcus pyogenes [9]
  MIC: 0.008 µg/mL (≈ 0.0101 µM)

## CC[C@H]1OC(=O)[C@@](C)(F)C(=O)[C@H](C)[C@@H](OC2O[C@H](C)C[C@H](N(C)C)[C@H]2O)[C@@](C)(OCC#Cc2cnc3ccccc3c2)C[C@@H](C)/C(=N\OC)[C@H](C)[C@H]2NC(=O)O[C@@]21C (stereo not given in full)
Streptococcus pyogenes [1]
  MIC: 0.25 µg/mL (≈ 0.308 µM)
Streptococcus pneumoniae [2]
  MIC: 0.125 µg/mL (≈ 0.154 µM)
Streptococcus pneumoniae [3]
  MIC: 0.125 µg/mL (≈ 0.154 µM)
Staphylococcus aureus [4]
  MIC: 64 µg/mL (≈ 78.9 µM)
Streptococcus pyogenes [5]
  MIC: 0.5 µg/mL (≈ 0.617 µM)
Streptococcus pneumoniae [6]
  MIC: 0.008 µg/mL (≈ 0.00986 µM)
Staphylococcus aureus [7]
  MIC: 0.25 µg/mL (≈ 0.308 µM)
Staphylococcus aureus [8]
  MIC: 0.5 µg/mL (≈ 0.617 µM)
Haemophilus influenzae
  MIC: 4 µg/mL (≈ 4.93 µM)
Streptococcus pyogenes [9]
  MIC: 0.008 µg/mL (≈ 0.00986 µM)

## CC[C@H]1OC(=O)[C@@](C)(F)C(=O)[C@H](C)[C@@H](OC2O[C@H](C)C[C@H](N(C)C)[C@H]2O)[C@@](C)(OCC#Cc2ccc(-c3nnn(C)n3)s2)C[C@@H](C)/C(=N\OC)[C@H](C)[C@H]2NC(=O)O[C@@]21C (stereo not given in full)
Streptococcus pyogenes [1]
  MIC: 0.5 µg/mL (≈ 0.59 µM)
Streptococcus pneumoniae [2]
  MIC: 0.25 µg/mL (≈ 0.295 µM)
Streptococcus pneumoniae [3]
  MIC: 0.125 µg/mL (≈ 0.147 µM)
Staphylococcus aureus [4]
  MIC: 64 µg/mL (≈ 75.5 µM)
Streptococcus pyogenes [5]
  MIC: 8 µg/mL (≈ 9.43 µM)
Streptococcus pneumoniae [6]
  MIC: 0.008 µg/mL (≈ 0.00943 µM)
Staphylococcus aureus [7]
  MIC: 0.25 µg/mL (≈ 0.295 µM)
Staphylococcus aureus [8]
  MIC: 1 µg/mL (≈ 1.18 µM)
Haemophilus influenzae
  MIC: 8 µg/mL (≈ 9.43 µM)
Streptococcus pyogenes [9]
  MIC: 0.008 µg/mL (≈ 0.00943 µM)

## CC[C@H]1OC(=O)[C@H](C)[C@@H](O[C@H]2C[C@@](C)(OC)[C@@H](O)[C@H](C)O2)[C@H](C)[C@@H](O[C@@H]2O[C@H](C)C[C@H](N(C)C)[C@H]2O)[C@](C)(O)C[C@@H](C)C(=O)[C@H](C)[C@@H](O)[C@]1(C)O [ERYTHROMYCIN]
Streptococcus pyogenes [1]
  MIC: 8 µg/mL (≈ 10.9 µM)
Streptococcus pneumoniae [2]
  MIC: > 128 µg/mL
Streptococcus pneumoniae [3]
  MIC: 4 µg/mL (≈ 5.45 µM)
Staphylococcus aureus [4]
  MIC: > 128 µg/mL
Streptococcus pyogenes [5]
  MIC: > 128 µg/mL
Streptococcus pneumoniae [6]
  MIC: 0.015 µg/mL (≈ 0.0204 µM)
Staphylococcus aureus [7]
  MIC: > 128 µg/mL
Staphylococcus aureus [8]
  MIC: 0.5 µg/mL (≈ 0.681 µM)
Haemophilus influenzae
  MIC: 4 µg/mL (≈ 5.45 µM)
Streptococcus pyogenes [9]
  MIC: 0.015 µg/mL (≈ 0.0204 µM)

## CC[C@H]1OC(=O)[C@H](C)C(=O)[C@H](C)[C@@H](O[C@@H]2O[C@H](C)C[C@H](N(C)C)[C@H]2O)[C@](C)(OC)C[C@@H](C)C(=O)[C@H](C)[C@H]2N(CCCCn3cnc(-c4cccnc4)c3)C(=O)O[C@]12C [TELITHROMYCIN]
Streptococcus pyogenes [1]
  MIC: 2 µg/mL (≈ 2.46 µM)
Streptococcus pneumoniae [2]
  MIC: 8 µg/mL (≈ 9.85 µM)
Streptococcus pneumoniae [3]
  MIC: 0.5 µg/mL (≈ 0.616 µM)
Staphylococcus aureus [4]
  MIC: > 100 µg/mL
Streptococcus pyogenes [5]
  MIC: 8 µg/mL (≈ 9.85 µM)
Streptococcus pneumoniae [6]
  MIC: 0.004 µg/mL (≈ 0.00493 µM)
Staphylococcus aureus [7]
  MIC: 0.1 µg/mL (≈ 0.123 µM)
Staphylococcus aureus [8]
  MIC: 0.1 µg/mL (≈ 0.123 µM)
Haemophilus influenzae
  MIC: 2 µg/mL (≈ 2.46 µM)
Streptococcus pyogenes [9]
  MIC: 0.004 µg/mL (≈ 0.00493 µM)
